# How the values were obtained:
# Assay in all cases: relative viability (nuclei count vs DMSO), 5 days (fraction); higher = more cells survive
# [1] = compound: CC(C)(C)c1nc(-c2cccc(NS(=O)(=O)c3c(F)cccc3F)c2F)c(-c2ccnc(N)n2)s1 [Dabrafenib] + CS(=O)(=O)N1CCN(Cc2cc3nc(-c4cccc5[nH]ncc45)nc(N4CCOCC4)c3s2)CC1 [Pictilisib] (partner 1 µM)
# How it was run: (§1)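 Cells from lung cancer lines were seeded into 1536-well plates and, one day later, dosed by pin tool. Treatments were either a single drug or a fixed dose of an anchor drug with five library-drug doses (not always all listed) in √10 steps. After 5 days, nuclei were stained in a one-step fixation (final 0.05% Triton X-100, 1% formaldehyde, 1 ug/ml Hoechst) and counted on 4× images, and relative viability is the treated-to-vehicle nuclei ratio, as the median of duplicate plates.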
# [2] = compound: CC(C)(C)c1nc(-c2cccc(NS(=O)(=O)c3c(F)cccc3F)c2F)c(-c2ccnc(N)n2)s1 [Dabrafenib] + CCNC(=O)c1noc(-c2cc(C(C)C)c(O)cc2O)c1-c1ccc(CN2CCOCC2)cc1 [Luminespib] (partner 0.01 µM)
# How it was run: as §1
# [3] = compound: NC(=O)c1ccc(N(C(N)=O)c2c(F)cccc2F)nc1-c1ccc(F)cc1F [VX-702] + COc1cccc2cc(-c3nc([C@H]4CC[C@H](C(=O)O)CC4)n4ncnc(N)c34)[nH]c12 [OSI-027] (partner 0.5 µM)
# How it was run: as §1
# [4] = compound: NC(=O)c1ccc(N(C(N)=O)c2c(F)cccc2F)nc1-c1ccc(F)cc1F [VX-702] + NC(=O)Nc1cc(-c2cccc(F)c2)sc1C(=O)N[C@H]1CCCNC1 [AZD7762] (partner 0.2 µM)
# How it was run: as §1
Cell Line,relative viability ([1]; first compound 0.003 µM),relative viability ([1]; first compound 0.009487 µM),relative viability ([1]; first compound 0.03 µM),relative viability ([1]; first compound 0.09487 µM),relative viability ([1]; first compound 0.3 µM),relative viability ([2]; first compound 0.003 µM),relative viability ([2]; first compound 0.009487 µM),relative viability ([2]; first compound 0.03 µM),relative viability ([2]; first compound 0.09487 µM),relative viability ([2]; first compound 0.3 µM),relative viability ([3]; first compound 0.02 µM),relative viability ([3]; first compound 0.2 µM),relative viability ([3]; first compound 0.6325 µM),relative viability ([3]; first compound 2 µM),relative viability ([4]; first compound 0.02 µM),relative viability ([4]; first compound 0.2 µM),relative viability ([4]; first compound 0.6325 µM),relative viability ([4]; first compound 2 µM)
NCI-H1299,0.74,0.756,0.797,0.464,0.441,,,,,,,,,,,,,
SK-MES-1,0.363,0.416,0.269,0.376,0.377,0.676,0.973,0.86,0.8,0.688,0.669,0.666,0.584,0.542,,,,
IA-LM,0.379,0.569,0.444,0.412,0.255,,,,,,,,,,,,,
HCC-78,,0.235,0.192,0.276,0.219,,,,,,0.364,0.358,0.311,0.32,0.541,0.589,0.774,0.798
COR-L23,0.8,0.888,0.704,0.632,0.647,0.648,0.76,0.544,0.603,0.771,0.989,0.75,0.766,0.961,,,,
SK-LU-1,,0.668,0.385,0.416,0.397,,0.234,0.169,0.22,0.201,0.386,0.341,0.339,0.354,,,,
NCI-H2023,0.171,0.271,0.207,0.283,0.267,0.866,0.817,0.755,0.661,0.84,0.349,0.445,0.441,0.416,,,,
SW 1573,0.501,0.474,0.454,0.426,0.505,0.179,0.314,0.289,0.633,0.217,0.715,0.636,0.504,0.482,,,,
EBC-1,0.397,0.37,0.272,0.184,0.227,,,,,,,,,,,,,
NCI-H1563,0.591,0.628,0.6,0.633,0.583,0.48,0.491,0.508,0.515,0.574,0.77,0.748,0.738,0.722,,,,
NCI-H2342,,,,,,0.666,0.563,0.707,0.769,0.842,0.632,0.651,0.644,0.692,0.607,0.644,0.6,0.552
NCI-H661,0.283,0.376,,0.34,0.48,0.985,0.927,0.912,0.758,0.855,0.708,0.702,0.748,0.893,,,,
A549,0.497,0.487,0.519,0.544,0.64,,,,,,,,,,,,,
HCC-366,0.161,0.183,0.0973,0.169,0.118,,,,,,1.09,0.899,0.932,0.107,0.381,0.218,0.372,0.123
